Measured values published in patent US20100267561A1, “HERBICIDAL PYRIDAZINONE DERIVATIVES” (priority 2007, published 2010).

What was measured:
Format in all cases: in vivo
[1] = test system: morningglory (Ipomoea coccinea); experiment: Test B pre-/postemergence plant response; details: for Morningglory plant response rating: 8 g ai/ha
Procedure, shortened: (§1)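 Seeds were sown and sprayed preemergence, while plants at 2 to 18 cm (1- to 4-leaf stage) got postemergence sprays. Compounds were formulated in a non-phytotoxic solvent mixture with surfactant. After 13 to 15 days in a greenhouse, injury was rated visually against untreated controls, 0 (no effect) to 100 (complete control).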

[2] = test system: velvetleaf (Abutilon theophrasti); experiment: Test B pre-/postemergence plant response; details: for Velvetleaf plant response rating: 8 g ai/ha
Procedure, shortened: as §1

[3] = test system: downy bromegrass (Bromus tectorum); experiment: Test B pre-/postemergence plant response; details: for Bromegrass, Downy plant response rating: 8 g ai/ha
Procedure, shortened: as §1

[4] = test system: common (oilseed) sunflower (Helianthus annuus); experiment: Test B pre-/postemergence plant response; details: Preemergence
Procedure, shortened: as §1

corn (Zea mays) = experiment: Test B pre-/postemergence plant response; details: for Corn plant response rating: 8 g ai/ha
Procedure, shortened: as §1

[5] = test system: large crabgrass (Digitaria sanguinalis); experiment: Test B pre-/postemergence plant response; details: for Crabgrass, Large plant response rating: 8 g ai/ha
Procedure, shortened: as §1

[6] = test system: wheat (Triticum aestivum); experiment: Test B pre-/postemergence plant response; details: for Wheat plant response rating: 8 g ai/ha
Procedure, shortened: as §1

[7] = test system: surinam grass (Brachiaria decumbens); experiment: Test B pre-/postemergence plant response; details: for Surinam Grass plant response rating: 8 g ai/ha
Procedure, shortened: as §1

wild oat (Avena fatua) = experiment: Test B pre-/postemergence plant response; details: for Oat, Wild plant response rating: 8 g ai/ha
Procedure, shortened: as §1

[8] = test system: green foxtail (Setaria viridis); experiment: Test B pre-/postemergence plant response; details: for Foxtail, Green plant response rating: 8 g ai/ha
Procedure, shortened: as §1

rice (Oryza sativa) = experiment: Test B flooded paddy test plant response
Procedure, shortened: (§2)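 2-leaf plants; pots flooded 3 cm above soil; compound added to paddy water; depth maintained. Greenhouse 13–15 d. Visual rating vs controls, 0 (no effect) to 100 (complete control); dash = no result.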

[9] = test system: umbrella sedge (Cyperus difformis); experiment: Test B flooded paddy test plant response
Procedure, shortened: as §2

[10] = test system: barnyardgrass (Echinochloa crus-galli); experiment: Test B flooded paddy test plant response
Procedure, shortened: as §2

[11] = test system: ducksalad (Heteranthera limosa); experiment: Test B flooded paddy test plant response
Procedure, shortened: as §2

[12] = Postemergence, 16 g ai/ha, scale 0 to 100
[13] = Postemergence, 31 g ai/ha, scale 0 to 100, 0 no effect, 100 complete control
[14] = Postemergence, 62 g ai/ha, scale 0 to 100, 0 no effect, 100 complete control
[15] = Preemergence, 16 g ai/ha, scale 0 to 100 (0 no effect, 100 complete control)
[16] = Preemergence, 31 g ai/ha, 0 to 100 scale, 0 no effect, 100 complete control
[17] = Preemergence, 62 g ai/ha, scale 0 to 100
[18] = Flood (flooded paddy test), 62 g ai/ha, scale 0 to 100, 0 no effect, 100 complete control
[19] = Flood (flooded paddy test), 125 g ai/ha, scale 0 to 100, 0 no effect, 100 complete control
[20] = Flood (flooded paddy test), 250 g ai/ha, scale 0 to 100, 0 no effect, 100 complete control
[21] = Flood, 31 g ai/ha, scale 0 to 100

Cc1cc(-c2ccc(Cl)cc2)nn1-c1c(OC(=O)C(C)C)cnn(C)c1=O [Compound 34]
98: Plant response rating, Corn (corn (Zea mays); [12]) | Plant response rating, Corn (corn (Zea mays); [13]) | Plant response rating, Corn (corn (Zea mays); [14])
30: Plant response rating, Wheat [6, 16] | Plant response rating, Ducksalad [11, 19]
50: Plant response rating, Bromegrass, Downy [3, 12] | Plant response rating, Bromegrass, Downy [3, 13] | Plant response rating, Barnyardgrass [10, 18]
95: Plant response rating, Corn (corn (Zea mays); [17]) | Plant response rating, Crabgrass, Large [5, 13] | Surinam Grass plant response rating ([7]; Preemergence, scale 0 to 100) | Plant response rating, Oat, Wild (wild oat (Avena fatua); [13])
20: Bromegrass, Downy plant response rating ([3]; postemergence, 0-100 scale)
70: Crabgrass, Large plant response rating ([5]; postemergence, 0-100 scale) | Surinam Grass plant response rating ([7]; postemergence, 0-100 scale) | Oat, Wild plant response rating (wild oat (Avena fatua); postemergence, 0-100 scale) | Plant response rating, Rice (rice (Oryza sativa); [19])
80: Plant response rating, Bromegrass, Downy [3, 14] | Plant response rating, Bromegrass, Downy [3, 17] | Plant response rating, Crabgrass, Large [5, 12] | Plant response rating, Surinam Grass [7, 12] | Plant response rating, Rice (rice (Oryza sativa); [20])
85: Plant response rating, Corn (corn (Zea mays); [16]) | Plant response rating, Oat, Wild (wild oat (Avena fatua); [16])
0: Morningglory plant response rating ([1]; postemergence, 0-100 scale) | Plant response rating, Morningglory [1, 12] | Plant response rating, Morningglory [1, 13] | Plant response rating, Morningglory [1, 14] | Plant response rating, Morningglory [1, 15] | Plant response rating, Morningglory [1, 16] | Plant response rating, Morningglory [1, 17] | Morningglory plant response rating ([1]; Preemergence, scale 0 to 100) | Velvetleaf plant response rating ([2]; postemergence, 0-100 scale) | Plant response rating, Velvetleaf [2, 12] | Plant response rating, Velvetleaf [2, 14] | Plant response rating, Velvetleaf [2, 15] | Plant response rating, Velvetleaf [2, 16] | Plant response rating, Velvetleaf [2, 17] | Velvetleaf plant response rating ([2]; Preemergence, scale 0 to 100) | Bromegrass, Downy plant response rating ([3]; Preemergence, scale 0 to 100) | Plant response rating, Sunflower ([4]; 16 g ai/ha, scale 0 to 100 (0 no effect, 100 complete control)) | Plant response rating, Sunflower ([4]; 31 g ai/ha, 0 to 100 scale, 0 no effect, 100 complete control) | Plant response rating, Sunflower ([4]; 62 g ai/ha, scale 0 to 100) | Sunflower plant response rating ([4]; 8 g ai/ha, scale 0 to 100) | Corn plant response rating (corn (Zea mays); postemergence, 0-100 scale) | Corn plant response rating (corn (Zea mays); Preemergence, scale 0 to 100) | Wheat plant response rating ([6]; postemergence, 0-100 scale) | Plant response rating, Wheat [6, 15] | Wheat plant response rating ([6]; Preemergence, scale 0 to 100) | Plant response rating, Rice (rice (Oryza sativa); [21]) | Plant response rating, Sedge, Umbrella [9, 18] | Plant response rating, Sedge, Umbrella [9, 19] | Plant response rating, Sedge, Umbrella [9, 20] | Plant response rating, Sedge, Umbrella [9, 21] | Plant response rating, Ducksalad [11, 18] | Plant response rating, Ducksalad [11, 21]
90: Plant response rating, Wheat [6, 14] | Plant response rating, Oat, Wild (wild oat (Avena fatua); [12]) | Plant response rating, Oat, Wild (wild oat (Avena fatua); [17]) | Plant response rating, Foxtail, Green [8, 12]
55: Plant response rating, Bromegrass, Downy [3, 15] | Plant response rating, Bromegrass, Downy [3, 16]
40: Plant response rating, Wheat [6, 12] | Plant response rating, Wheat [6, 17] | Oat, Wild plant response rating (wild oat (Avena fatua); Preemergence, scale 0 to 100) | Plant response rating, Rice (rice (Oryza sativa); [18]) | Plant response rating, Barnyardgrass [10, 21] | Plant response rating, Ducksalad [11, 20]
100: Plant response rating, Crabgrass, Large [5, 14] | Plant response rating, Crabgrass, Large [5, 15] | Plant response rating, Crabgrass, Large [5, 16] | Plant response rating, Crabgrass, Large [5, 17] | Crabgrass, Large plant response rating ([5]; Preemergence, scale 0 to 100) | Plant response rating, Surinam Grass [7, 14] | Plant response rating, Surinam Grass [7, 15] | Plant response rating, Surinam Grass [7, 16] | Plant response rating, Surinam Grass [7, 17] | Plant response rating, Oat, Wild (wild oat (Avena fatua); [14]) | Plant response rating, Foxtail, Green [8, 13] | Plant response rating, Foxtail, Green [8, 14] | Plant response rating, Foxtail, Green [8, 15] | Plant response rating, Foxtail, Green [8, 16] | Plant response rating, Foxtail, Green [8, 17] | Foxtail, Green plant response rating ([8]; Preemergence, scale 0 to 100) | Plant response rating, Barnyardgrass [10, 19] | Plant response rating, Barnyardgrass [10, 20]
60: Foxtail, Green plant response rating ([8]; postemergence, 0-100 scale)
65: Plant response rating, Corn (corn (Zea mays); [15])
